Source: PMC5268383, “Inhibition of STAT3 by Anticancer Drug Bendamustine” (PLoS ONE, 2017)
Entries after “also recorded” stand apart in the source; their conditions may differ. Read-outs that look alike come from different tables or passages of the source.

Legend:
[1] = system: c-Myc protein in MDA-MB-468 cells; assay: Western blotting of c-Myc protein; format: cell-based, human; conditions: MDA-MB-468, 50 or 100 μM, 24 h
Experimental: (§1) Cells were treated with PhosphoSafe Extraction Reagent. Total proteins (40 μg) were subjected to SDS-PAGE and then transferred onto a nitrocellulose membrane. Membranes were blocked in 5% skim milk in TBS/0.1% Tween 20, incubated with primary antibodies diluted at 1:1000 in 1.5% skim milk in TBS (pH 7.4)/0.1% Tween 20 overnight at 4°C, and then incubated with HRP-conjugated secondary antibodies diluted at 1:5000 in TBS (pH 7.4)/0.1% Tween 20 for 1 h at room temperature. Immunoblots were developed with a chemiluminescent substrate.

[2] = biological target: T1, STAT3 Cys550 mutant (C550A) (Homo sapiens, UniProt P40763, C550A); assay: SH2 binding AlphaScreen assay with Cys550 mutant recombinant STAT3; conditions: 100 μM BENDA, 375 nM mutant STAT3, 30 min
T1 construct: Full-length cDNAs were obtained from a human cDNA library by PCR; Avi-tag (N); 6His-tag (N); made in house; host or cells: Escherichia coli (pET-28a; host inferred to be the same BirA-BL21 as for wild type)
Experimental: Point mutations were introduced into recombinant human STAT3 (rhSTAT3) by inverse PCR. We mutated Cys468, Cys542, Cys550, Cys687, and Cys712 near the SH2 domain to alanine. Inverse PCR was performed by using pBluescript II KS (+) as a template, KOD-Plus-ver. 2 (Toyobo, Osaka, Japan), and the following oligonucleotide primer set: Cys468 (forward: 5’-TCCAACATCG CTCAGATGCC AAATG-3’, reverse: 5′-GATCACCACA ACTGGCAAGG AGTGG-3′); Cys542 (forward: 5′-GAATTATTCAGGGGCTCAGATCACATGGGCTAAAT-3′, reverse: 5′-ACACCAGGTC CCAAGAGTTT CTCTGCC-3′); Cys550 (forward: 5′-GCTAAATTTG CCAAAGAAAA CATGGCTGGC-3′, reverse: 5′-CCATGTGATC TGACACCCTG AATAATTCA CACC-3′); Cys687 (forward: 5′-GGAAAGTATG CTCGGCCAGA GAGCCAG-3′, reverse: 5′-GAATGCCTCC TCCTTGGGAA TGTCAGG-3′); and Cys712 (forward: 5′-AAGTTTATCG CTGTGACACC AACGACCTGC-3′, reverse: 5′-GGTCTTCAGG TATGGGGCAG CGCTAC-3′). Inverse PCR (1 × PCR buffer, 1.5 mM MgSO4, 15 pmol 5′ primer and 3′ primer, 0.2 mM dNTPs, 50 ng STAT3 cDNA, 1 U KOD Plus) was performed under the following conditions: 2 min at 94°C, (10 s at 98°C, and 6.5 min at 68°C)×7 cycles. The amplified fragment was ligated by using Ligation High ver. 2 (Toyobo). The resultant plasmid was cloned into the HindIII/XhoI sites of modified pET-28a (+). The nucleotides coding for human mutant STAT3 in pET-28a (+) were named mutant STAT3 His-Avi-pET28a (+). […]

cells = system: cells; design: method as in PMID 22768280; conditions: cited from earlier work
[3] = system: STAT3-Y705 phosphorylation in MDA-MB-468 cells; assay: Western blotting of STAT3-Y705 phosphorylation; format: cell-based, human; conditions: MDA-MB-468, 50 or 100 μM, 24 h
Experimental: as §1

[4] = system: MDA-MB-468 cells (high P-STAT3); assay: WST cell proliferation assay, MDA-MB-468; format: cell-based, human; conditions: 0.1-100 μM, 48 h, WST-8
Experimental: Cells were plated in a 96-well tissue culture plate (1000 cells per well) and incubated for 48 h. After incubation, the cells were treated with vehicle, 0.1–100 μM BENDA, or HP2 for 48 h. Samples were assayed in triplicate. After incubation, WST-8 solution (10 μL; Dojindo Molecular Technologies, Rockville, MD, USA) was added to each well and incubated at 37°C for 4 h, and the absorbance was read at 450 nm.

[5] = biological target: T2, STAT3-DNA complex (c-myc promoter) in MDA-MB-468 cells (Homo sapiens, UniProt P40763); assay: ChIP assay, c-myc promoter binding by STAT3; format: cell-based; conditions: MDA-MB-468, 8 h; BENDA 25, 50, 100 μM, HP2 50, 100 μM
T2 construct: endogenous in cells; host or cells: MDA-MB-468
Experimental: A ChIP assay was performed with an ExactaChIP Human/Mouse STAT3 ChIP kit (R&D Systems, Minneapolis, MN, USA). MDA-MB-468 cancer cells were fixed with 1% formaldehyde and treated with the lysis buffer. After sonication, anti-STAT3 antibody or normal mouse IgG was added to the extract, followed by precipitation with Protein G Plus/Protein A Agarose Suspension. The eluted DNA fraction was used for PCR with human c-myc primers.

[6] = system: c-myc mRNA in MDA-MB-468 cells; assay: RT-PCR of c-myc mRNA; format: cell-based, human; conditions: 8 h
[7] = system: cyclin D1, survivin and Bcl-2 mRNA in MDA-MB-468 cells; assay: RT-PCR of STAT3 target genes cyclin D1, survivin, Bcl-2; format: cell-based, human; conditions: MDA-MB-468, 50 or 100 μM, 8 h
[8] = biological target: T3, recombinant human STAT3 SH2 domain (Homo sapiens, UniProt P40763); assay: AlphaScreen SH2 binding assay, STAT3
T3 construct: Full-length cDNAs were obtained from a human cDNA library by PCR; Avi-tag (biotinylated in BirA-BL21) (N); made in house; host or cells: Escherichia coli BirA-BL21
Experimental: AlphaScreen assays were performed in a final reaction volume of 25 μL of the assay buffer, containing 10 mM HEPES-NaOH (pH 7.4), 50 mM NaCl, 1 mM EDTA (pH 8.0), 0.1% NP-40, and 10 ng/mL BSA in a 96-well microtiter plate at 25°C. The labeled Phospho-Tyr (pTyr) peptide probe was 5-carboxyfluorescein (FITC)-GpYLPQTV for STAT3, FITC-GpYDKPHVL for STAT1, and FITC-PSpYVNVQN for Grb2. A DMSO solution of BENDA was incubated with 50 nM of each SH2-containing protein for 15 min, 50 nM of the corresponding FITC-pTyr peptide was added, and the mixture was incubated for 90 min. Streptavidin-coated donor beads and anti-FITC acceptor beads were added and incubated for 90 min before the signals were measured with an Envision Xcite plate reader (PerkinElmer Life Sciences, Waltham, MA, USA).

T3 sequence (P40763 whole entry, the tested form may be a part): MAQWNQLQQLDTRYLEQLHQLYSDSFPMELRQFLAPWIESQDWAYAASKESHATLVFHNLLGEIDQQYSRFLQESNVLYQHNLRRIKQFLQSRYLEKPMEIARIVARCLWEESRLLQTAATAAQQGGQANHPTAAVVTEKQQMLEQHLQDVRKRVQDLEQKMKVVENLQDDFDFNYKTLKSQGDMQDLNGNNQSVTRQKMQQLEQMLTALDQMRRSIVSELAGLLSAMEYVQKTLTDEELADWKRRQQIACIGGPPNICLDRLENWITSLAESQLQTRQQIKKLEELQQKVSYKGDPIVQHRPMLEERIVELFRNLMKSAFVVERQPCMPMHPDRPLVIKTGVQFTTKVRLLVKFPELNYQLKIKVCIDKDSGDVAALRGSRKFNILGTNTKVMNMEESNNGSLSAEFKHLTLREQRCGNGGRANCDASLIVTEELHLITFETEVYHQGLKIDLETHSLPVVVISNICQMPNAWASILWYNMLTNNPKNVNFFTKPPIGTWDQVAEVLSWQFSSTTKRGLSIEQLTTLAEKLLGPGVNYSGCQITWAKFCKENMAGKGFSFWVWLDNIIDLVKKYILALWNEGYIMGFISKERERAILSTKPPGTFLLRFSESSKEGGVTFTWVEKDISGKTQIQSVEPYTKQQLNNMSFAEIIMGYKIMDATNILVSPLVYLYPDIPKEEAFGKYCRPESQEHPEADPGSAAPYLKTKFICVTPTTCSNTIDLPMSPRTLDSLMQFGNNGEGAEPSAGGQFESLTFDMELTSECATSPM
T1 sequence (P40763 whole entry C550A): as the sequence (P40763 whole entry, the tested form may be a part) above, with C550A counted along it
T2 sequence (P40763 2-770 limits assumed, one chain of several): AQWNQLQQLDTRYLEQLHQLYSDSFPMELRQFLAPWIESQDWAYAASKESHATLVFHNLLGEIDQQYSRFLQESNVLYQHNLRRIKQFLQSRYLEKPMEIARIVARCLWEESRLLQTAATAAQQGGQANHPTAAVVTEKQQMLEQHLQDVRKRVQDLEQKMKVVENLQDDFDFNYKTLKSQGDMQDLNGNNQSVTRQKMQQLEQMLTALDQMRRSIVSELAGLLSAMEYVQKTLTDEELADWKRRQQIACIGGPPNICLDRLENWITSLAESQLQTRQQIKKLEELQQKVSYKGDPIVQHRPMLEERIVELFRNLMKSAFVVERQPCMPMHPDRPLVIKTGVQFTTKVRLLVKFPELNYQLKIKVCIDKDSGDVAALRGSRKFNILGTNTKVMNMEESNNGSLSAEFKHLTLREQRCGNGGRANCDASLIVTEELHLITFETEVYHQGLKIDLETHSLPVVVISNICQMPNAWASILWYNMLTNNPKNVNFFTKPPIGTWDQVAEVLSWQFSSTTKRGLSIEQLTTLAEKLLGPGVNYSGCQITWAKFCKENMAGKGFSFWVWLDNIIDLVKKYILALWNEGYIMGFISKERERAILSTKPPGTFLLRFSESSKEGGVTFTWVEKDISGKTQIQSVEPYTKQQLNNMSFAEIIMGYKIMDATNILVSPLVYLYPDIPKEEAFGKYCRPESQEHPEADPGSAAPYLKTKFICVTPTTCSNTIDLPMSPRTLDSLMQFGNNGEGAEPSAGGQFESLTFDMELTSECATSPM

Cn1c(CCCC(=O)O)nc2cc(N(CCCl)CCCl)ccc21 [BENDA, 4-{5-[bis(2-chloroethyl)amino]-1-methyl-2-benzimidazolyl} butyric acid]
Expression of c-Myc protein [1]: inhibited the expression of c-Myc protein | inhibition at 100 µM [2]: 3% | Cell cycle arrest (cells; 50 μM): transiently arrested cells in G2 | Cell cycle arrest (cells; 200 μM): arrested cells in S phase | Phosphorylation of STAT3-Y705 [3]: inhibited the phosphorylation of STAT3-Y705 in a concentration-dependent manner | Inhibition of proliferation of MDA-MB-468 cells [4]: inhibited proliferation | Amplified c-myc promoter band in STAT3 ChIP [5]: reduced | c-myc mRNA expression, % of vehicle treatment ([6]; MDA-MB-468, 50 μM): 72% | c-myc mRNA expression, % of vehicle treatment ([6]; MDA-MB-468, 100 μM): 33% | Bcl-2 mRNA expression [7]: dose-dependent decrease | cyclin D1 mRNA expression [7]: dose-dependent decrease | survivin mRNA expression [7]: dose-dependent decrease | IC50 [8]: 7.4 µM | SH2 binding inhibition in presence of 2-mercaptoethanol ([8]; 200 μM (0.2 mM) 2-mercaptoethanol, data not shown): did not inhibit; also recorded: wholly inactivated | SH2 inhibitory activity in presence of excess L-cysteine ([8]; 200 μM (0.2 mM) L-cysteine added to assay mixture): attenuated; also recorded: wholly inactivated
